Test results published in patent US4996214A, “Quinolinyl substituted phenyl/thioalkanoic acid substituted propionic acids and leucotriene antagonist use thereof” (SmithKline Beecham Corporation, priority 1990, dated 1991).

Molecular target: T1, LTD4 (Cavia porcellus, UniProt Q2NNR5)
T1 construct: tracheal spiral strips of approximate dimensions 2 to 3 mm cross-sectional width; from tissue; host or cells: guinea pig (adult male albino Hartley) tracheal spiral strips
T1 sequence (Q2NNR5 1-340): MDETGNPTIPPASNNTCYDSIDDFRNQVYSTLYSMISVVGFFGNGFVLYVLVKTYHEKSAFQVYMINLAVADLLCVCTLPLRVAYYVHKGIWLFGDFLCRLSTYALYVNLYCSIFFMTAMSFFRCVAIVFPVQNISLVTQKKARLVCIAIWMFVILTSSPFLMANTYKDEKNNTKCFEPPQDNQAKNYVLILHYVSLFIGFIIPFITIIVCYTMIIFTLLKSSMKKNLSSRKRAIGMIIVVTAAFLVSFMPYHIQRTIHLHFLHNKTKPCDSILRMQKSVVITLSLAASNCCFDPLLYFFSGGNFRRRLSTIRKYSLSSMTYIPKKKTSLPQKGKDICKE
Assay: inhibition of leukotriene (LTD4) induced contraction of guinea pig tracheal tissues in vitro
Format: cell-based
Experimental: The leukotriene antagonist activity of the compounds of this invention was measured by the ability of the compounds to inhibit the leukotriene induced contraction of guinea pig tracheal tissues in vitro. The following methodology was employed: In vitro: Guinea pig (adult male albino Hartley strain) tracheal spiral strips of approximate dimensions 2 to 3 mm cross-sectional width and 3.5 cm length were bathed in modified Krebs buffer in jacketed 10 ml tissue bath and continuously aerated with 95% O2 /5% CO2. The tissues were connected via silk suture to force displacement transducers for recording isometric tension. The tissues were equilibrated for 1 hour, pretreated for 15 minutes with meclofenamic acid ([…]) to remove intrinsic prostaglandin responses, and then pretreated for an additional 30 minutes with either the test compound or vehicle control. […]
Calculations: The averages of the triplicate LTD4 concentration-response curves both in the presence and absence of the test compound were plotted on log graph paper. The concentration of LTD4 needed to elicit 30% of the contraction elicited by carbachol was measured and defined as the EC30. The -log KB value for the test compound was determined by the following equations: [formula] […]
The antagonist activity of representative compounds of this invention is tabulated below. The -log KB values were calculated from the above test protocols. […]

Kb (LTD4 concentration-response on guinea pig tracheal spiral strips, EC30 shift, 30 min pretreatment with test compound, read-out: pKB (-log KB) (converted)): 0.0316 µM
Ki (stated as 'in this assay', separate method not given): 0.0077 µM
SMILES: O=C(O)CCSC(CC(=O)O)c1ccccc1CCCCCCCc1ccc2ccc(Cl)cc2n1 (centres unmarked) [3-{2-[7-(2-(7-Chloro)quinolinyl)heptyl]phenyl}-3,3'-thiodipropionic acid]
